From article PMC4725915, “Ruthenium(II) Complexes with 2-Phenylimidazo[4,5-f][1,10]phenanthroline Derivatives that Strongly Combat Cisplatin-Resistant Tumor Cells” (Scientific Reports, 2016)

Columns and labels:
Type in all cases: cell-based, human
A549R cells [1] = test: Mitochondrial membrane potential (JC-1); conditions: different concentrations (0.5, 1.0, 2.0 μM), 24 h
Excerpt: Mitochondria are the principal organelles related to energy metabolism and ATP synthesis; consequently, resistance against chemotherapeutic drugs can often be traced to the mitochondria. […] Mitochondrial dysfunction is involved in apoptotic cell death, and the loss of mitochondrial membrane potential (MMP, ΔΨm) is a hallmark of mitochondrial dysfunction. […] Confocal microscopy and flow cytometry were used to confirm whether complex 4-induced apoptosis occurred by damaging mitochondria, and the cationic dye JC-1 was used as the MMP-sensitive probe.
A549R cells were cultured in 6-well tissue culture plates for 24 h and treated with complex 4 (0.5, 1.0 and 2.0 μM) for 24 h. After the treatment, the cells were collected and resuspended at 1 × 10^6 cells/mL in a pre-warmed staining working solution containing JC-1 (5 μg/mL) and incubated for 15 min at 37 °C. Subsequently, the cells were washed twice with pre-warmed PBS and analyzed immediately with a flow cytometer on a FACS Canto II (BD Biosciences, USA). Red and green mean fluorescence intensities were analyzed using FlowJo 7.6 software (Tree Star, OR, USA). […] After the treatment described above, the stained cells were visualized under an inverted fluorescence microscope (Zeiss Axio Observer D1). JC-1 fluorescence was measured with single excitation (488 nm) and dual emission (shift from green 530 nm to red 590 nm).

TrxR = test: Western blot of TrxR expression in A549R cells; conditions: different concentrations, 12 h
Excerpt: The elevated levels of TrxR in cancers, especially in non-small cell lung cancers, are responsible for drug resistance. The thioredoxin system has a significant influence on intracellular physiological processes, such as antioxidant defense, cell functions, cell apoptosis and cell proliferation. TrxR has previously been identified as a drug target. […] In addition, the expression levels of TrxR in A549R cells in response to the addition of complex 4 were also examined by Western blot analysis.
A549R cells were seeded into 10 cm tissue culture dishes (Corning), incubated for 24 h, and treated with complex 4 for 12 h. The cells were washed with ice-cold PBS and lysed by incubation in radio immune precipitation assay buffer (RIPA) and a protease inhibitor cocktail (Sigma) for 30 min on ice. The lysates were centrifuged at 15000 rpm for 15 min at 4 °C, and the protein concentrations were quantified by a BCA protein assay reagent kit (Sigma). The proteins were separated on precast NuPAGE 4% to 12% polyacrylamide gradient Bis–Tris gels (Invitrogen) under denaturing conditions, transferred to PVDF membranes (Invitrogen), and subjected to Western blot analyses. […] The bound immune complexes were detected using an ECL prime Western blot detection reagent (Amersham Inc., USA). […]

A549R cells [2] = test: Cell cycle analysis (PI, FACS); conditions: 24 h
Protocol: Cell proliferation is activated under pathological conditions and plays a crucial role in cancer cell regeneration. Deregulated cell-cycle control is a fundamental aspect of cancer and the process is related to the proliferation and death of cancer cells. Therefore, the effect of cyclometalated complex 4 on cell cycles was investigated using fluorescence-activated cell sorting (FACS) analysis of the DNA content. […] A higher dose of complex 4 (2.0 μM) elicited a strong G2/M arrest of A549R cells, accounting for 46% of the cell population (control, 12.82%). The enrichment of the G2/M phase of the cell cycle of A549R cells may have led to their apoptosis by disrupting the cell cycle.
A549R cells were treated with different concentrations of complex 4 (i.e., 0.5, 1.0 and 2.0 μM) for 24 h. The cells were collected and fixed in 2 mL of 70% cold aqueous ethanol (v/v). After incubation, the cells were centrifuged and washed three times with cold PBS and resuspended in 0.5 mL of PBS. To a 0.5 mL cell sample, […] of RNase A (1 mg/mL in PBS) was added and incubated for 30 min at 37 °C; then, […] of a PI ([…] in PBS) solution was added after gentle mixing for 5 min at 37 °C in the dark. The samples were resuspended and 10,000 cells were analyzed for each sample by a BD FACS Calibur cytometer (Becton Dickinson, Heidelberg, Germany). The data were acquired and analyzed with ModFit LT 3.2.

[3] = system: cancer cell lines (HeLa, A549, A549R); test: MTT cytotoxicity, all tested cancer cell lines taken together; conditions: 48 h, read-out: IC50 toward all the tested cancer cell lines
Protocol: Compounds 1–4 were evaluated against three tumor cell lines derived from different tissues, including the cervix (HeLa), lung (A549) and cisplatin-resistant lung (A549R) tissues. For comparison, the cytotoxicity of cisplatin was also evaluated. As a control, the toxicities of the complexes were also tested against the normal human cell line (LO2).
The cytotoxicity of the ruthenium complexes and cisplatin were determined by an MTT assay. Briefly, cells were seeded into 96-well microtiter plates at 1 × 10^4 cells per well and grown overnight at 37 °C in a 5% CO2 incubator; then, different concentrations of the complexes in cell culture medium were added to the cultures. The plates were then incubated in an incubator for 48 h under the same conditions. The stock MTT dye solution (15 μL, 5 mg/mL) was added to each well. After 4 h of incubation, the cultures were removed and 150 μL of DMSO was added to each well. The optical density of each well was measured on a microplate spectrophotometer at a wavelength of 595 nm.

Ru(phen)(bzq)(tbtfpip)(PF6) [Complex 4]
mitochondrial membrane potential (MMP) (A549R cells [1]): loss of MMP | expression levels of TrxR (TrxR): downregulated | G2/M share of the cell population (A549R cells [2]; 2.0 μM, control 12.82%): 46% | percentage of cells in the G0/G1 phase (A549R cells [2]; control 68.46): 30.87% | IC50 [3]: 800 to 2400 nM
